For orientation: IC50 means the concentration at which inhibition is half-maximal.

Our source for the IC50 values is patent US20210009564A1, “CALPAIN MODULATORS AND THERAPEUTIC USES THEREOF” (BLADE THERAPERTICS, INC., priority 2018, published 2021).

Assay [1] concerns the target T1, Human Calpain 1/NS1 (Homo sapiens, UniProt P07384).
T1 sequence (P07384 1-714): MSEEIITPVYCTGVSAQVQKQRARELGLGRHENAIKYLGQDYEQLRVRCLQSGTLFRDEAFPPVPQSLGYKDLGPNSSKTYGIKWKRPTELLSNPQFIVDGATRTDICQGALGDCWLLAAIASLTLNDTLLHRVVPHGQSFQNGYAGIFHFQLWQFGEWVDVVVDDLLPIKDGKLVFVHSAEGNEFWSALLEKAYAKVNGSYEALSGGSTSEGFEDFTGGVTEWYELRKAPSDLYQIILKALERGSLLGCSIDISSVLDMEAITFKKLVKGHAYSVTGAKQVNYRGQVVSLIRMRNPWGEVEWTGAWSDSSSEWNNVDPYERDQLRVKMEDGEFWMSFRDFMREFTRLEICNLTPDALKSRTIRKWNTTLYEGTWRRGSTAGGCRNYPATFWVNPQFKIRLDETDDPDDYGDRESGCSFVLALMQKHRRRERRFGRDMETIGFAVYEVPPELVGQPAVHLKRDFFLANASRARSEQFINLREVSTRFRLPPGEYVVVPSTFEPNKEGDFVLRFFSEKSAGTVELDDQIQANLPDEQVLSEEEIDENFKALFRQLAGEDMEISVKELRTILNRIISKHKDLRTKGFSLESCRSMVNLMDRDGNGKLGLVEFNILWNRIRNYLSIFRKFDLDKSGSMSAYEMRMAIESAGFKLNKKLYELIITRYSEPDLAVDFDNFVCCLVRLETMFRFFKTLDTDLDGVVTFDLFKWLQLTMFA
T1 sequence (P04632 1-268 partner): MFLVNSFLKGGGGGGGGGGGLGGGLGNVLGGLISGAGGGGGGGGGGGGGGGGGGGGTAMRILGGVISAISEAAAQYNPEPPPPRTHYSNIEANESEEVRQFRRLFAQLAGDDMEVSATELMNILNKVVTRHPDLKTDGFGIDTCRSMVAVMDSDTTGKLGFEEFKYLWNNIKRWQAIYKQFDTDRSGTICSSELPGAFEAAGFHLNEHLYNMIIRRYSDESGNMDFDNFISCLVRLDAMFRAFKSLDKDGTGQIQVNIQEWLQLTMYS
As to the kind of experiment: Calpain inhibition, continuous fluorescence (FRET substrate) assay, calpain 1. Particulars: SensoLyte 520 FRET substrate, 25C. Format: biochemical. Put shortly:
(§1)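 Calpains preincubated with serially diluted inhibitors at 25 °C in 50 mM Tris pH 7.5, 100 mM NaCl, 1 mM DTT; CaCl2 plus 5-FAM/QXL 520 FRET substrate started the reaction. Fluorescence (490/520 nm) read 10 min; rates from 1-5 min slopes, IC50 from 4-parameter logistic fit.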

For assay [2], the system named is Calpain activity in SH-SY5Y cells. As to the kind of experiment: SH-SY5Y Suc-LLVY-AMC fluorescence assay. Type of assay: cell-based. The conditions noted are these: Homo sapiens; SH-SY5Y cells, 100 uM Suc-LLVY-AMC; read-out: SH-SY5Y + AMC IC50.
Assay [3] shares this test system. As to the kind of experiment: SH-SY5Y spectrin breakdown product (SBDP-150) western blot assay. Particulars: Homo sapiens; SH-SY5Y cells, 25 uM A23187, SBDP-150 western blot; read-out: SH-SY5Y Spectrin IC50. Type of assay: cell-based. In general terms: A western blot detects proteins with antibodies after separation by electrophoresis.
For assay [4], the target named is T2, Human Calpain 2/NS1 (Homo sapiens, UniProt P17655).
T2 sequence (P17655 1-700): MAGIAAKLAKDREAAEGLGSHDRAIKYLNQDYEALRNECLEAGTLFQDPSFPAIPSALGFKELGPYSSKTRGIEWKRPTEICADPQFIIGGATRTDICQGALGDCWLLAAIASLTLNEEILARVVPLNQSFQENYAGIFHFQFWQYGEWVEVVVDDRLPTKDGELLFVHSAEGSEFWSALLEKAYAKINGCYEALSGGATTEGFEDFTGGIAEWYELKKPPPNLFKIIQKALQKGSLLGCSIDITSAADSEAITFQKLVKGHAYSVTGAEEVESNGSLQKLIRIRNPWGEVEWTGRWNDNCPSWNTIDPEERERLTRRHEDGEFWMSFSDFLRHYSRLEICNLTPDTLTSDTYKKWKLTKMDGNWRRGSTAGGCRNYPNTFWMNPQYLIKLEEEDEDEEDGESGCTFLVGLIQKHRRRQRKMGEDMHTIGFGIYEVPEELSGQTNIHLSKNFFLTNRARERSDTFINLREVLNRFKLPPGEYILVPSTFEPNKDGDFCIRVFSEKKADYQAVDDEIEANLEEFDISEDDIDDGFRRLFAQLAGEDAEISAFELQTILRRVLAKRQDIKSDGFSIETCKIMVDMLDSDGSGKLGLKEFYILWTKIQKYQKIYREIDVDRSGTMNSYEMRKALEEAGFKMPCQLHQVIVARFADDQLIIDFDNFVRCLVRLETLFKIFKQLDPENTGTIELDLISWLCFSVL
T2 sequence (P04632 1-268 partner): T1 sequence (P04632 1-268 partner)
As to the kind of experiment: Calpain inhibition, continuous fluorescence (FRET substrate) assay, calpain 2. The conditions noted are these: SensoLyte 520 FRET substrate, 25C. Format: biochemical. In a few lines:
as §1

The target of assay [5] is T3, Human Calpain 9/NS1 (Homo sapiens, UniProt O14815).
T3 sequence (O14815 1-690): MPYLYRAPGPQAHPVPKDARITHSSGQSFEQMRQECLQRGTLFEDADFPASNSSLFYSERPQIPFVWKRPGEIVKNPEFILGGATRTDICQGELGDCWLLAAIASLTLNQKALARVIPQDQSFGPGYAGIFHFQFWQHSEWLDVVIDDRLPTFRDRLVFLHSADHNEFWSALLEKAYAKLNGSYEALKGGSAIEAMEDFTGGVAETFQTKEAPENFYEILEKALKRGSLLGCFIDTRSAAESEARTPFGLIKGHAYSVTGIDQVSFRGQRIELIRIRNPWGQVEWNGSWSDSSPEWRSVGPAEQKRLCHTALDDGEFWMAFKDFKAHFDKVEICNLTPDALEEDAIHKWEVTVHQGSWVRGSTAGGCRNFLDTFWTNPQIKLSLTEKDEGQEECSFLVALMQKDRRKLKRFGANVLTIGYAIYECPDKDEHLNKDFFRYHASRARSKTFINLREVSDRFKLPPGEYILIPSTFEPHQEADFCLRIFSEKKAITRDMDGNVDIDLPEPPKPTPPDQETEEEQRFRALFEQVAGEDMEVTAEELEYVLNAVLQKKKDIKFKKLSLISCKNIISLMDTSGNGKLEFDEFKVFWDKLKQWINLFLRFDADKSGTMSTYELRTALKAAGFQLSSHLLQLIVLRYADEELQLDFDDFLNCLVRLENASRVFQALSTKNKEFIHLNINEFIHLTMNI
T3 sequence (P04632 1-268 partner): T1 sequence (P04632 1-268 partner)
As to the kind of experiment: Calpain inhibition, continuous fluorescence (FRET substrate) assay, calpain 9. Format: biochemical. Particulars: SensoLyte 520 FRET substrate, 25C. In a few lines:
as §1

In the case of `Cc1nc(-c2cc(Cl)oc2C)c(C(=O)NC(Cc2ccccc2)C(=O)C(N)=O)o1` (centres unmarked) [Compound 98, N-(4-AMINO-3,4-DIOXO-1-PHENYLBUTAN-2-YL)-4-(5-CHLORO-2-METHYLFURAN-3-YL)-2-METHYLOXAZOLE-5-CARBOXAMIDE], the IC50 in assay [1] was < 3 µM; in assay [2] it was < 10 µM; in assay [3], 10 to 25 µM; in assay [4], < 3 µM; in assay [5] it was < 3 µM.
Take `Cn1cc(C(=O)NC(Cc2ccccc2)C(=O)C(N)=O)c(-c2cccc3cn(C)nc23)n1` (centres unmarked) [Compound 99, N-(4-AMINO-3,4-DIOXO-1-PHENYLBUTAN-2-YL)-1-METHYL-3-(2-METHYL-2H-INDAZOL-7-YL)-1H-PYRAZOLE-4-CARBOXAMIDE]: the IC50 is < 3 µM in assay [1]; > 25 µM in assay [2]; > 25 µM in assay [3]; < 3 µM in assay [4]; < 3 µM in assay [5].
On to `CC(C)n1ncc2c(-c3nn(C)cc3C(=O)NC(Cc3ccccc3)C(=O)C(N)=O)cccc21` (centres unmarked) [Compound 100, N-(4-AMINO-3,4-DIOXO-1-PHENYLBUTAN-2-YL)-3-(1-ISOPROPYL-1H-INDAZOL-4-YL)-1-METHYL-1H-PYRAZOLE-4-CARBOXAMIDE], for which the IC50 is < 3 µM in assay [1]; 10 to 25 µM in assay [2]; 10 to 25 µM in assay [3]; < 3 µM in assay [4]; < 3 µM in assay [5].
Consider `Cn1cc(C(=O)NC(Cc2ccccc2)C(=O)C(N)=O)c(-c2cccc3ccsc23)n1` (centres unmarked) [Compound 101, N-(4-AMINO-3,4-DIOXO-1-PHENYLBUTAN-2-YL)-3-(BENZO[b]THIOPHEN-7-YL)-1-METHYL-1H-PYRAZOLE-4-CARBOXAMIDE], for which the IC50 in assay [1] is < 3 µM; in assay [2] it was 10 to 25 µM; in assay [3], < 10 µM; in assay [4], < 3 µM; in assay [5] it was < 3 µM.
Take `Cn1cc(C(=O)NC(Cc2ccccc2)C(=O)C(N)=O)c(-c2cccc3sccc23)n1` (centres unmarked) [Compound 102, N-(4-AMINO-3,4-DIOXO-1-PHENYLBUTAN-2-YL)-3-(BENZO[b]THIOPHEN-4-YL)-1-METHYL-1H-PYRAZOLE-4-CARBOXAMIDE]: the IC50 in assay [1] is < 3 µM; in assay [2] it was > 25 µM; in assay [3], < 10 µM; in assay [4], < 3 µM; in assay [5], < 3 µM.
For the compound `CC(C)n1c(=O)[nH]c2c(-c3nn(C)cc3C(=O)NC(Cc3ccccc3)C(=O)C(N)=O)cccc21` (centres unmarked) [Compound 103, N-(4-AMINO-3,4-DIOXO-1-PHENYLBUTAN-2-YL)-3-(1-ISOPROPYL-2-OXO-2,3-DIHYDRO-1H-BENZO[D]IMIDAZOL-4-YL)-1-METHYL-1H-PYRAZOLE-4-CARBOXAMIDE], the IC50 is < 3 µM in assay [1]; 10 to 25 µM in assay [2]; < 10 µM in assay [3]; < 3 µM in assay [4]; < 3 µM in assay [5].
Regarding `O=C(NC(Cc1ccccc1)C(=O)c1nc[nH]n1)c1nsnc1-c1ccccc1` (centres unmarked) [Compound 104, N-(1-OXO-3-PHENYL-1-(H-1,2,4-TRIAZOL-3-YL)PROPAN-2-YL)-4-PHENYL-1,2,5-THIADIAZOLE-3-CARBOXAMIDE], the IC50 was > 10 µM in assay [1]; > 25 µM in assay [2]; > 25 µM in assay [3]; > 10 µM in assay [4]; > 10 µM in assay [5].
